The text below walks through data of patent publication US20100113504A1, “AMIDE COMPOUNDS AND THEIR USE AS ANTITUMOR AGENTS” (SIGMA-TAU INDUSTRIE FARMACEUTICHE RIUNITE S.P.A., priority 2007, published 2010).

Where a name gives a salt, the structure may show the parent alone. Read-outs that look alike come from different tables or passages of the source.

As a reminder, the IC50 is the concentration at which inhibition is half-maximal.

Holding throughout (format): cell-based
For experiment [1], the system named is NB4 human promyelocitic leukaemia. In words: Cytotoxicity (sulphorodamine B) on NB4 tumor cells. As to conditions: then 48 h in drug-free medium, read-out: IC50 ± SD, NB4. How it is done:
To test the effects of the compounds on cell growth, NB4 human promyelocitic leukaemia, NCI-H460 non-small cell carcinoma cells and HCT-116 human colon carcinoma cells were used. NB4 and NCI-H460 tumor cells were grown RPMI 1640 containing 10% fetal bovine serum (GIBCO), whereas HCT-116 tumor cells were grown in McCoy's 5A containing 10% fetal bovine serum (GIBCO).
(§1) Tumor cells were seeded in 96-well tissue culture plates at approximately 10% confluence and were allowed to attach and recover for at least 24 h. […] The plates were incubated for 24 h at 37° C. At the end of the treatment, for NB4 tumor cells in suspension, the procedure was performed as follows: medium culture was removed by centrifugation of the plates at 1600×g for 10 min and the surnatant was removed. 250 μl PBS were added, then the plates were centrifuged at 1600×g for 10 min, the surnatant was removed. 200 μl/well of medium culture RPMI 1640 containing 10% FCS were added and the plates were incubated at 37° C. for other 48 h. The plates were centrifuged again at 1600×g for 10 min, the medium culture was removed and 200 μl PBS and 50 μl of cold 80% TCA were added. The plates were incubated on ice for at least 1 h. TCA was removed, the plates were washed 3 times for immersion in distilled-water and dried before on paper, then in a thermostater at 40° C. Subsequently 200 μl of 0.4% sulphorodamine B in 1% acetic acid were added. The plates were incubated at room temperature for other 30 min. Sulphorodamine B was removed, the plates were washed for immersion in 1% acetic acid for 3 times, then they were washed and dried on paper. 200 μl Tris 10 mM were added, the plates were kept under stirring for 20 min. The survival cell was determined as optical density by a Multiskan spectrofluorimeter at 540 nm. For the tumor cells in adhesion (NCI-H460 and HCT-116), the procedure was as above mentioned, except that the at the end of the treatment, the plates were washed by remotion of the surnatant and addition of PBS 3 times and not by centrifugation. Also the last day of the assay, the surnatant was removed without centrifugation.
(§2) The amount of cells killed was calculated as the percentage decrease in sulphorodamine B binding compared with control cultures.

Experiment [2] has as its system NCI-H460 non-small cell carcinoma cells. In words: Cytotoxicity (sulphorodamine B) on NCI-H460 tumor cells. As to conditions: 24 h treatment, then 48 h in drug-free medium, read-out: IC50 ± SD, NCI-H460. The procedure:
as §1, with “200 μl/well of medium culture RPMI 1640 containing 10% FCS were added and the plates were incubated at 37° C. for other 48 h.” left out, “For the tumor cells in adhesion (NCI-H460 and HCT-116), the procedure was as above mentioned, except that the at the end of the treatment, the plates were washed by remotion of the surnatant and addition of PBS 3 times and not by centrifugation.” left out
as §2

In experiment [3] the test system is HCT-116 human colon carcinoma cells. Put plainly: Cytotoxicity (sulphorodamine B) on HCT-116 tumor cells. As to conditions: HCT-116 cells, 24 h treatment, then 48 h in drug-free medium, read-out: IC50 ± SD, HCT-116. How it is done: as §1, with “200 μl/well of medium culture RPMI 1640 containing 10% FCS were added and the plates were incubated at 37° C. for other 48 h.” left out, “For the tumor cells in adhesion (NCI-H460 and HCT-116), the procedure was as above mentioned, except that the at the end of the treatment, the plates were washed by remotion of the surnatant and addition of PBS 3 times and not by centrifugation.” left out
as §2

Experiment [4] relates to NB4, NCI-H460 and HCT-116 tumor cells. In words: Cytotoxicity summarised over the three tumor cell lines. As to conditions: Homo sapiens; mean over NB4, NCI-H460, HCT-116; 24 h of treatment. How it is done: as §1, with “200 μl/well of medium culture RPMI 1640 containing 10% FCS were added and the plates were incubated at 37° C. for other 48 h.” left out, “For the tumor cells in adhesion (NCI-H460 and HCT-116), the procedure was as above mentioned, except that the at the end of the treatment, the plates were washed by remotion of the surnatant and addition of PBS 3 times and not by centrifugation.” left out
as §2

Setting [5] is: Homo sapiens, NB-4, 24 h treatment.

Regarding `O=C(CCCCC(O)C(=O)Nc1ccccc1)NO` (racemic) [Compound 5a, (±)-2-Hydroxyheptanedioic acid 7-hydroxyamide 1-phenylamide], the IC50 in experiment [1] (setting [5]) stood at 3700 ± 600 nM; in experiment [2] (Homo sapiens), 13700 ± 2600 nM; in experiment [3] (Homo sapiens) it was 8600 ± 200 nM.
Regarding `COC(CCCCC(=O)NO)C(=O)Nc1ccccc1` (racemic) [Compound 5b, (±)-2-Methoxyheptanedioic acid 7-hydroxyamide 1-phenylamide], the IC50 was determined as 3500 ± 400 nM in experiment [1] (setting [5]), 5700 ± 500 nM in experiment [2] (Homo sapiens) and 5000 ± 100 nM in experiment [3] (Homo sapiens).
For `C=CCOC(CCCCC(=O)NO)C(=O)Nc1ccccc1` (racemic) [Compound 5c, (±)-2-Allyloxyheptanedioic acid 7-hydroxyamide 1-phenylamide], the IC50 stood at 4500 ± 400 nM in experiment [1] (setting [5]), 8600 ± 300 nM in experiment [2] (Homo sapiens) and 4300 ± 200 nM in experiment [3] (Homo sapiens).
With `C=C(C)COC(CCCCC(=O)NO)C(=O)Nc1ccccc1` (racemic) [Compound 5d, (±)-2-(2-Methylallyloxy)heptanedioic acid 7-hydroxyamide 1-phenylamide], the IC50 in experiment [1] (setting [5]) turned out to be 9600 ± 800 nM; in experiment [2] (Homo sapiens), 14700 ± 1600 nM; in experiment [3] (Homo sapiens) it was 12400 ± 200 nM.
Turning to `CCCOC(CCCCC(=O)NO)C(=O)Nc1ccccc1` (racemic) [Compound 5e, (±)-2-Propoxyheptanedioic acid 7-hydroxyamide 1-phenylamide], the IC50 in experiment [1] (setting [5]) amounted to 4100 ± 300 nM; in experiment [2] (Homo sapiens), 10400 ± 1200 nM; in experiment [3] (Homo sapiens) it was 8500 ± 300 nM.
Consider `O=C(CCCCC(OCc1ccccc1)C(=O)Nc1ccccc1)NO` (racemic) [Compound 5f, (±)-2-Benzyloxyheptanedioic acid 7-hydroxyamide 1-phenylamide], for which the IC50 in experiment [1] (setting [5]) was above 5000 nM; in experiment [2] (Homo sapiens), 5500 ± 600 nM; in experiment [3] (Homo sapiens), 2400 ± 60 nM.
For `COc1ccc(COC(CCCCC(=O)NO)C(=O)Nc2ccccc2)cc1` (racemic) [Compound 5g, (±)-2-(4-Methoxybenzyloxy)heptanedioic acid 7-hydroxyamide 1-phenylamide], the IC50 in experiment [1] (setting [5]) was 1000 ± 100 nM; in experiment [2] (Homo sapiens), 2000 ± 300 nM; in experiment [3] (Homo sapiens), 1300 ± 60 nM.
On to `O=C(CCCCCC(O)C(=O)Nc1ccccc1)NO` (racemic) [Compound 9a, (±)-2-Hydroxyoctanedioic acid 8-hydroxyamide 1-phenylamide], for which the IC50 in experiment [1] (setting [5]) is 500 ± 30 nM; in experiment [2] (Homo sapiens), 1000 ± 90 nM; in experiment [4] it was below 1000 nM; in experiment [3] (Homo sapiens), 700 ± 20 nM.
Take `COC(CCCCCC(=O)NO)C(=O)Nc1ccccc1` (racemic) [Compound 9b, (±)-2-Methoxyoctanedioic acid 8-hydroxyamide 1-phenylamide]: the IC50 in experiment [1] (setting [5]) is 500 ± 30 nM; in experiment [2] (Homo sapiens), 1200 ± 100 nM; in experiment [4], below 1000 nM; in experiment [3] (Homo sapiens), 900 ± 40 nM.
Consider `C=CCOC(CCCCCC(=O)NO)C(=O)Nc1ccccc1` (racemic) [Compound 9c, (±)-2-Allyloxyoctanedioic acid 8-hydroxyamide 1-phenylamide], for which the IC50 was determined as 400 ± 20 nM in experiment [1] (setting [5]), 1800 ± 100 nM in experiment [2] (Homo sapiens) and 1000 ± 100 nM in experiment [3] (Homo sapiens).
In the case of `COc1ccc(COC(CCCCCC(=O)NO)C(=O)Nc2ccccc2)cc1` (racemic) [Compound 9d, (±)-2-(4-Methoxybenzyloxy)octanedioic acid 8-hydroxyamide 1-phenylamide], the IC50 in experiment [1] (setting [5]) was 100 ± 10 nM; in experiment [2] (Homo sapiens), 500 ± 20 nM; in experiment [4] it was below 1000 nM; in experiment [3] (Homo sapiens), 200 ± 6 nM.
Turning to `O=C(CCCCCC(OCc1ccc(C(F)(F)F)cc1)C(=O)Nc1ccccc1)NO` (racemic) [Compound 9e, (±)-2-(4-Trifluoromethylbenzyloxy)octanedioic acid 8-hydroxyamide 1-phenylamide], the IC50 in experiment [1] (setting [5]) is 200 ± 2 nM; in experiment [2] (Homo sapiens), 500 ± 60 nM; in experiment [4], below 1000 nM; in experiment [3] (Homo sapiens) it was 400 ± 30 nM.
Consider `COc1cccc(COC(CCCCCC(=O)NO)C(=O)N(Cc2cccc(OC)c2)c2ccccc2)c1` (racemic) [Compound 9i, (±)-2-(3-methoxybenzyloxy)octanedioic acid 8-hydroxyamide 1-[(3-methoxybenzyl)phenylamide]], for which the IC50 in experiment [1] (24 h treatment) stood at 4000 ± 700 nM; in experiment [2], 7400 ± 500 nM; in experiment [3] it was 7500 ± 400 nM.
Turning to `O=C(CCCCCCC(O)C(=O)Nc1ccccc1)NO` (racemic) [Compound 13a, (±)-2-Hydroxynonanedioic acid 9-hydroxyamide 1-phenylamide], the IC50 was found to be 900 ± 100 nM in experiment [1] (setting [5]), 3600 ± 800 nM in experiment [2] (Homo sapiens) and 1600 ± 50 nM in experiment [3] (Homo sapiens).
As for `COC(CCCCCCC(=O)NO)C(=O)Nc1ccccc1` (racemic) [Compound 13b, (±)-2-Methoxynonanedioic acid 9-hydroxyamide 1-phenylamide], the results for the IC50 in experiment [1] (setting [5]), in experiment [2] (Homo sapiens) and in experiment [3] (Homo sapiens) were 800 ± 30 nM, 1900 ± 100 nM and 1100 ± 9 nM, respectively.
Taken in the same sequence, the figures for `C=CCOC(CCCCCCC(=O)NO)C(=O)Nc1ccccc1` (racemic) [Compound 13c, (±)-2-Allyloxynonanedioic acid 9-hydroxyamide 1-phenylamide] were 600 ± 60 nM, 1500 ± 300 nM and 1000 ± 50 nM.
For `COc1cc2cc(c1)COc1ccccc1NC(=O)C(CCCCCC(=O)NO)OCC=C2` (racemic) [Compound 32, (±)-6-(19-Methoxy-11-oxo-3,13-dioxa-10-azatricyclo[15.3.1.04,9]henicosa-1(21),4(9),5,7,15,17,19-heptaen-12-yl)hexanoic acid hydroxyamide], the figures for the IC50 in experiment [2] (Homo sapiens), in experiment [4] and in experiment [3] (Homo sapiens) were 900 ± 80 nM, below 1000 nM and 400 ± 30 nM, respectively.
Regarding `O=C(CCCCCC1OCCCCCCOc2ccncc2NC1=O)NO` (racemic) [Compound 46, (±)-6-(14-Oxo-6,7,8,9,10,11,14,15-octahydro-13H-5,12-dioxa-2,15-diazabenzocyclotridecen-13-yl)hexanoic acid hydroxyamide], the IC50 in experiment [2] (Homo sapiens) is 20000 nM; in experiment [3] (Homo sapiens), 13000 ± 1700 nM.
For `CO[C@H](CCCCC(=O)NO)C(=O)Nc1ccccc1` [(R)-5b, 2-(R)-Methoxyheptanedioic acid 7-hydroxyamide 1-phenylamide], the IC50 in experiment [1] (setting [5]) worked out at 4000 ± 600 nM; in experiment [2] (Homo sapiens) it was 9600 ± 500 nM; in experiment [3] (Homo sapiens), 7800 ± 500 nM.
Take `CO[C@@H](CCCCC(=O)NO)C(=O)Nc1ccccc1` [(S)-5b, 2-(S)-Methoxyheptanedioic acid 7-hydroxyamide 1-phenylamide]: the IC50 came to 3500 ± 300 nM in experiment [1] (setting [5]), 7800 ± 500 nM in experiment [2] (Homo sapiens) and 6800 ± 300 nM in experiment [3] (Homo sapiens).
For the compound `COc1ccc(CO[C@@H](CCCCCC(=O)NO)C(=O)Nc2ccccc2)cc1` [(S)-9d, 2-(S)-(4-Methoxybenzyloxy)octanedioic acid 8-hydroxyamide 1-phenylamide], the IC50 in experiment [1] (24 h treatment) was found to be 100 ± 2 nM; in experiment [2] it was 400 ± 30 nM; in experiment [3], 200 ± 7 nM.
`O=C(CCCCC[C@@H]1NCCCCCCOc2ccccc2NC1=O)NO` [(S)-42a, 6-(6-Oxo-5,6,7,8,9,10,11,12,13,14-decahydro-15-oxa-5,8-diazabenzocyclotridecen-7-(S)yl)hexanoic acid hydroxyamide hydrochloride]: the IC50 in experiment [2] (Homo sapiens) came out at 1100 ± 70 nM; in experiment [3] (Homo sapiens), 800 ± 70 nM.
